The record followed here is PubChem BioAssay (NCI).

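The compound was tested at five concentrations on cells cultured in 96-well plates, with a 48-hour exposure period. Abbreviation: GI50, concentration required for 50% inhibition of growth. TGI: total growth inhibition.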 Some results are limits rather than exact numbers.

Some test systems named below: A498 renal; HCT-116 colon; NCI-H522 lung; NCI-H23 lung; SK-MEL-28 melanoma; TK-10 renal; UO-31 renal; MDA-MB-231 breast; MALME-3M melanoma; EKVX NSCLC.
Common to all, as to experiment: NCI anticancer screen, dose series, 48 h

On to `C[C@]12CC(c3ccccc3O1)C(C(=O)NC13CC4CC(CC(C4)C1)C3)C(=O)N2` (stereo partly specified), for which the TGI was above 100 µM with A498 renal; 41 µM with HCT-116 colon; above 100 µM in the assay with NCI-H522 lung; 61.9 µM in the assay with NCI-H23 lung; 64 µM in the assay with SK-MEL-28 melanoma; above 100 µM in the assay on TK-10 renal. Further, the TGI in the assay on UO-31 renal is 44.3 µM; in the assay on MDA-MB-231 breast, above 100 µM; in the assay on MALME-3M melanoma, above 100 µM; with EKVX NSCLC it was 19.3 µM.
For `CN(C)Cc1ccc(C(=O)Nc2ccc3ncnc(Nc4ccc(Oc5cccc(F)c5)c(Cl)c4)c3c2)cc1`, the GI50 was 1.35 µM in the assay with A498 renal; 1.58 µM in the assay with NCI-H23 lung; 1.68 µM in the assay on SK-MEL-28 melanoma; 1.3 µM in the assay with UO-31 renal; 1.65 µM in the assay with MDA-MB-231 breast; 1.53 µM with MALME-3M melanoma. For the same molecule, the GI50 in the assay on EKVX NSCLC was 1.3 µM. Besides, the TGI turned out to be 2.71 µM with A498 renal; 3.09 µM with NCI-H23 lung; 3.09 µM in the assay on SK-MEL-28 melanoma; 2.59 µM in the assay on UO-31 renal; 3.12 µM in the assay on MDA-MB-231 breast; 3.01 µM in the assay with MALME-3M melanoma. In addition, in the assay with EKVX NSCLC, the TGI was 2.7 µM.
Consider `O=C1c2ccccc2-c2ccc(N=[N+]([O-])c3ccc4c(c3)C(=O)c3ccccc3-4)cc21`, for which the TGI in the assay with A498 renal, in the assay on HCT-116 colon, in the assay with NCI-H522 lung, in the assay with NCI-H23 lung, with SK-MEL-28 melanoma and with TK-10 renal was above 100 µM throughout. In addition, the TGI with UO-31 renal, with MDA-MB-231 breast, in the assay on MALME-3M melanoma and in the assay with EKVX NSCLC was above 100 µM in each case.
For the molecule `C=C1C(=O)OC2C1C(OC(=O)/C(C)=C/C)CC1(C)C(=O)CCC(=C)C21` (stereo unspecified), the TGI with A498 renal was 34 µM; in the assay on HCT-116 colon, 31.2 µM; with NCI-H522 lung, 7.63 µM; with NCI-H23 lung, 30.1 µM; in the assay with SK-MEL-28 melanoma, above 42.8 µM; with TK-10 renal, 25.7 µM. Besides, the TGI in the assay on UO-31 renal came to 13.3 µM; in the assay with MDA-MB-231 breast it was 38.4 µM; in the assay with MALME-3M melanoma it was 23.3 µM; with EKVX NSCLC it was 33.8 µM.
For `CC(C)CC1c2[nH]c3ccccc3c2C[C@H]2C(=O)NC(CCC(=O)OC(C)(C)C)C(=O)N12` (stereo partly specified), the TGI is above 100 µM in the assay with A498 renal; above 100 µM in the assay with HCT-116 colon; 88.1 µM in the assay with NCI-H522 lung; above 100 µM in the assay with NCI-H23 lung; above 100 µM in the assay with SK-MEL-28 melanoma; 74 µM with TK-10 renal. The TGI was above 100 µM with UO-31 renal, 79.1 µM in the assay with MDA-MB-231 breast, 62.2 µM with MALME-3M melanoma and above 100 µM with EKVX NSCLC.
Regarding `c1ccc2sc(C3(N4CCCCC4)CCCC3)cc2c1`, the TGI with A498 renal turned out to be 25.7 µM; with HCT-116 colon, 19.9 µM; with NCI-H522 lung it was 24.8 µM; in the assay on NCI-H23 lung, 17.6 µM; in the assay with SK-MEL-28 melanoma it was 28.7 µM; in the assay with TK-10 renal it was 28.5 µM. Further, the TGI in the assay with UO-31 renal worked out at 33.8 µM; with MALME-3M melanoma it was 29.1 µM; with EKVX NSCLC, 22 µM.
In the case of `O=C(O)C1CC(c2ccccc2)=NN1c1ccccc1` (stereo unspecified), the TGI with A498 renal, in the assay with HCT-116 colon, in the assay on NCI-H522 lung, with NCI-H23 lung, with SK-MEL-28 melanoma and in the assay on TK-10 renal was above 100 µM in each case. Besides, the TGI with UO-31 renal is above 100 µM; in the assay with MDA-MB-231 breast, above 100 µM; in the assay on MALME-3M melanoma it was 96.4 µM; in the assay with EKVX NSCLC, 88.9 µM.
As to `S=C1N(c2ccc(Cl)cc2)C2=C(N=Nc3ccccc3)C(=Nc3ccccc3S2)N1c1ccccn1`, the TGI with A498 renal is 17.2 µM; in the assay on HCT-116 colon, 27.1 µM; in the assay on NCI-H23 lung, 37.4 µM; in the assay on SK-MEL-28 melanoma, 29.4 µM; in the assay on TK-10 renal, 28 µM; with UO-31 renal, 21.7 µM. Also, the TGI in the assay with MDA-MB-231 breast is 25.4 µM; in the assay with MALME-3M melanoma it was 19.8 µM; with EKVX NSCLC it was 26.6 µM.
As for `Oc1cc2cccc[n+]2c2cccc(Cl)c12`, the GI50 with HCT-116 colon was 55.7 µM; in the assay with NCI-H522 lung it was 94.8 µM; in the assay on NCI-H23 lung it was 25.2 µM; in the assay with SK-MEL-28 melanoma, 21.8 µM; with UO-31 renal, 31.3 µM; in the assay on MDA-MB-231 breast it was 91.5 µM. Further, the GI50 in the assay on MALME-3M melanoma was 18.4 µM; in the assay with EKVX NSCLC it was 38.4 µM. The results for the TGI in the assay on NCI-H23 lung, with UO-31 renal and with MALME-3M melanoma were 72.5 µM, 93 µM and 40.4 µM, respectively.
`O=S(=O)(c1ccc(I)cc1)N(c1ccccc1)S(=O)(=O)C(F)(F)C(F)(F)C(F)(F)C(F)(F)F`: the TGI in the assay with HCT-116 colon is 44.6 µM; with NCI-H522 lung, 84.9 µM; in the assay with NCI-H23 lung, above 100 µM; with SK-MEL-28 melanoma it was above 100 µM; in the assay with TK-10 renal, 73.5 µM; in the assay on UO-31 renal, above 100 µM. Moreover, the TGI with MDA-MB-231 breast, in the assay with MALME-3M melanoma and with EKVX NSCLC was above 100 µM in each case.
As to `COc1cc(-c2coc3c(OC)c(OC4OC(CO)C(O)C(O)C4O)c(OC)cc3c2=O)cc(OC)c1C` (stereo unspecified), the TGI was above 100 µM in the assay on HCT-116 colon; 11.1 µM in the assay with NCI-H522 lung; 14.1 µM in the assay on NCI-H23 lung; above 28.4 µM with SK-MEL-28 melanoma; above 70.3 µM in the assay with TK-10 renal; 21 µM in the assay with UO-31 renal. Also, the TGI is above 54.5 µM in the assay on MDA-MB-231 breast, 29.7 µM in the assay on MALME-3M melanoma and 27.3 µM in the assay on EKVX NSCLC.
